Test results taken from patent US10959432B2, “Microbiocidal oxadiazole derivatives” (Syngenta Participations AG, priority 2016, dated 2021).

Key:
[1] = test system: Glomerella laqenarium (Colletotrichum lagenarium); test: Fungicidal activity against Glomerella lagenarium (Colletotrichum lagenarium) liquid culture / cucumber / preventative (anthracnose); type: cell-based; conditions: Colletotrichum orbiculare; 20 ppm in the applied formulation; liquid culture in PDB, 24° C., 3 to 4 days after application; read-out: disease control compared to untreated control (inhibition of growth measured photometrically)
Protocol: Mycelia fragments or conidia suspensions of a fungus prepared either freshly from liquid cultures of the fungus or from cryogenic storage, are directly mixed into nutrient broth. DMSO solutions of the test compound (max. 10 mg/ml) are diluted with 0.025% Tween20 by a factor of 50 and 10 μl of this solution is pipetted into a microtiter plate (96-well format). The nutrient broth containing the fungal spores/mycelia fragments is then added to give an end concentration of the tested compound. The test plates are incubated in the dark at 24° C. and 96% relative humidity. The inhibition of fungal growth is determined photometrically after 2 to 7 days, depending on the pathosystem, and percent antifungal activity relative to the untreated check is calculated.
Example 4: Fungicidal Activity Against Glomerella laqenarium (Colletotrichum lagenarium) Liquid Culture/Cucumber/Preventative (Anthracnose)
Conidia of the fungus from cryogenic storage are directly mixed into nutrient broth (PDB—potato dextrose broth). After placing a (DMSO) solution of test compound into a microtiter plate (96-well format), the nutrient broth containing the fungal spores is added. The test plates are incubated at 24° C. and the inhibition of growth is measured photometrically 3 to 4 days after application.
The following compounds at 20 ppm in the applied formulation give at least 80% disease control in this test when compared to untreated control under the same conditions, which show extensive disease development.

Phakopsora pachyrhizi = test: Fungicidal activity against Phakopsora pachyrhizi / soybean / leaf disc preventative (Asian soybean rust); type: in vivo; conditions: foliar, 200 ppm in the applied formulation, soybean leaf disks, preventative (inoculated one day after application), assessed 12 to 14 days after application, read-out: disease control compared to untreated control leaf disks
Protocol: (§1) Leaf disks or leaf segments of various plant species are cut from plants grown in a greenhouse. The cut leaf disks or segments are placed in multiwell plates (24-well format) onto water agar. The leaf disks are sprayed with a test solution before (preventative) or after (curative) inoculation. Compounds to be tested are prepared as DMSO solutions (max. 10 mg/ml) which are diluted to the appropriate concentration with 0.025% Tween20 just before spraying. The inoculated leaf disks or segments are incubated under defined conditions (temperature, relative humidity, light, etc.) according to the respective test system. A single evaluation of disease level is carried out 3 to 14 days after inoculation, depending on the pathosystem. Percent disease control relative to the untreated check leaf disks or segments is then calculated. General Examples of Liquid Culture Tests in Well Plates:
Example 3: Fungicidal Activity Against Phakopsora pachyrhizi/Soybean/Leaf Disc Preventative (Asian Soybean Rust)
Soybean leaf disks are placed on water agar in multiwell plates (24-well format) and sprayed with the formulated test compound diluted in water. One day after application leaf discs are inoculated by spraying a spore suspension on the lower leaf surface. After an incubation period in a climate cabinet of 24-36 hours in darkness at 20° C. and 75% rh leaf disc are kept at 20° C. with 12 h light/day and 75% rh. The activity of a compound is assessed as percent disease control compared to untreated when an appropriate level of disease damage appears in untreated check leaf disks (12 to 14 days after application).
(§2) The following compounds at 200 ppm in the applied formulation give at least 80% disease control in this test when compared to untreated control leaf disks under the same conditions, which show extensive disease development.

[2] = test system: Puccinia recondita f. sp. tritici; test: Fungicidal activity against Puccinia recondita f. sp. tritici / wheat / leaf disc curative (brown rust); type: in vivo; conditions: foliar, 200 ppm in the applied formulation, wheat leaf segments cv. Kanzler, curative (applied 1 day after inoculation), assessed 6 to 8 days after application, read-out: disease control compared to untreated control leaf disks
Protocol: as §1
Example 2: Fungicidal Activity Against Puccinia recondita f. sp. Tritici/Wheat/Leaf Disc Curative (Brown Rust)
Wheat leaf segments cv. Kanzler are placed on agar in multiwell plates (24-well format). The leaf segments are then inoculated with a spore suspension of the fungus. Plates were stored in darkness at 19° C. and 75% relative humidity. The formulated test compound diluted in water was applied 1 day after inoculation. The leaf segments were incubated at 19° C. and 75% relative humidity under a light regime of 12 hours light/12 hours darkness in a climate cabinet and the activity of a compound was assessed as percent disease control compared to untreated when an appropriate level of disease damage appears in untreated check leaf segments (6 to 8 days after application).
as §2

[3] = test system: Puccinia recondita f. sp. tritici; test: Fungicidal activity against Puccinia recondita f. sp. tritici / wheat / leaf disc preventative (brown rust); type: in vivo; conditions: foliar, 200 ppm in the applied formulation, wheat leaf segments cv. Kanzler, preventative (inoculated 1 day after application), assessed 7 to 9 days after application, read-out: disease control compared to untreated control leaf disks
Protocol: as §1
Example 1: Fungicidal Activity Against Puccinia recondita f. sp. tritici/Wheat/Leaf Disc Preventative (Brown Rust)
Wheat leaf segments cv. Kanzler were placed on agar in multiwell plates (24-well format) and sprayed with the formulated test compound diluted in water. The leaf disks were inoculated with a spore suspension of the fungus 1 day after application. The inoculated leaf segments were incubated at 19C and 75% relative humidity (rh) under a light regime of 12 hours light/12 hours darkness in a climate cabinet and the activity of a compound was assessed as percent disease control compared to untreated when an appropriate level of disease damage appears in untreated check leaf segments (7 to 9 days after application).
as §2

C#CCN(C)C(=O)c1ccc(-c2noc(C(F)(F)F)n2)cc1F [Compound 3b.44, 2-fluoro-N-methyl-N-prop-2-ynyl-4-[5-(trifluoromethyl)-1,2,4-oxadiazol-3-yl]benzamide]
≥ 80%: inhibition at 20 ppm [1] | pest or weed control at 200 ppm (Phakopsora pachyrhizi) | pest or weed control at 200 ppm [2] | pest or weed control at 200 ppm [3]

CC(C)CN(C)C(=O)c1ccc(-c2noc(C(F)(F)F)n2)cc1 [Compound 3a.13, N-isobutyl-N-methyl-4-[5-(trifluoromethyl)-1,2,4-oxadiazol-3-yl]benzamide]
≥ 80%: inhibition at 20 ppm [1] | pest or weed control at 200 ppm (Phakopsora pachyrhizi) | pest or weed control at 200 ppm [2] | pest or weed control at 200 ppm [3]

CCC(COC)NC(=O)c1ccc(-c2noc(C(F)(F)F)n2)cc1F (centres unmarked) [Compound 3b.11, 2-fluoro-N-[1-(methoxymethyl)propyl]-4-[5-(trifluoromethyl)-1,2,4-oxadiazol-3-yl]benzamide]
≥ 80%: inhibition at 20 ppm [1] | pest or weed control at 200 ppm (Phakopsora pachyrhizi) | pest or weed control at 200 ppm [2] | pest or weed control at 200 ppm [3]

CCOCCNC(=O)c1ccc(-c2noc(C(F)(F)F)n2)cc1F [Compound 3b.39, N-(2-ethoxyethyl)-2-fluoro-4-[5-(trifluoromethyl)-1,2,4-oxadiazol-3-yl]benzamide]
≥ 80%: inhibition at 20 ppm [1] | pest or weed control at 200 ppm (Phakopsora pachyrhizi) | pest or weed control at 200 ppm [2] | pest or weed control at 200 ppm [3]

C#CCN(C)C(=O)c1ccc(-c2noc(C(F)(F)F)n2)cc1 [Compound 3a.41, N-methyl-N-prop-2-ynyl-4-[5-(trifluoromethyl)-1,2,4-oxadiazol-3-yl]benzamide]
≥ 80%: inhibition at 20 ppm [1] | pest or weed control at 200 ppm (Phakopsora pachyrhizi) | pest or weed control at 200 ppm [2] | pest or weed control at 200 ppm [3]

CCOC(C)CNC(=O)c1ccc(-c2noc(C(F)(F)F)n2)cc1F (centres unmarked) [Compound 3b.12, N-(2-ethoxypropyl)-2-fluoro-4-[5-(trifluoromethyl)-1,2,4-oxadiazol-3-yl]benzamide]
≥ 80%: inhibition at 20 ppm [1] | pest or weed control at 200 ppm (Phakopsora pachyrhizi) | pest or weed control at 200 ppm [2] | pest or weed control at 200 ppm [3]

C=CCN(CC)C(=O)c1ccc(-c2noc(C(F)(F)F)n2)cc1F [Compound 3b.30, N-allyl-N-ethyl-2-fluoro-4-[5-(trifluoromethyl)-1,2,4-oxadiazol-3-yl]benzamide]
≥ 80%: inhibition at 20 ppm [1] | pest or weed control at 200 ppm (Phakopsora pachyrhizi) | pest or weed control at 200 ppm [2] | pest or weed control at 200 ppm [3]

O=C(Nc1nccnn1)c1ccc(-c2noc(C(F)(F)F)n2)cc1 [Compound 5a.8, N-(1,2,4-triazin-3-yl)-4-[5-(trifluoromethyl)-1,2,4-oxadiazol-3-yl]benzamide]
≥ 80%: inhibition at 20 ppm [1] | pest or weed control at 200 ppm (Phakopsora pachyrhizi) | pest or weed control at 200 ppm [2] | pest or weed control at 200 ppm [3]

CCOCCCNC(=O)c1ccc(-c2noc(C(F)(F)F)n2)cc1F [Compound 3b.24, N-(3-ethoxypropyl)-2-fluoro-4-[5-(trifluoromethyl)-1,2,4-oxadiazol-3-yl]benzamide]
≥ 80%: inhibition at 20 ppm [1] | pest or weed control at 200 ppm (Phakopsora pachyrhizi) | pest or weed control at 200 ppm [2] | pest or weed control at 200 ppm [3]

CCC(C)NC(=O)c1ccc(-c2noc(C(F)(F)F)n2)cc1 (centres unmarked) [Compound 3a.7, N-sec-butyl-4-[5-(trifluoromethyl)-1,2,4-oxadiazol-3-yl]benzamide]
≥ 80%: inhibition at 20 ppm [1] | pest or weed control at 200 ppm (Phakopsora pachyrhizi) | pest or weed control at 200 ppm [2] | pest or weed control at 200 ppm [3]

CC(C)N(C)C(=O)c1ccc(-c2noc(C(F)(F)F)n2)cc1F [Compound 3b.36, 2-fluoro-N-isopropyl-N-methyl-4-[5-(trifluoromethyl)-1,2,4-oxadiazol-3-yl]benzamide]
≥ 80%: inhibition at 20 ppm [1] | pest or weed control at 200 ppm (Phakopsora pachyrhizi) | pest or weed control at 200 ppm [2] | pest or weed control at 200 ppm [3]
